In US9580390B2, “Indazole compounds as kinase inhibitors and method of treating cancer with same” (University Health Network, priority 2011, dated 2017):
Read-outs that look alike come from different tables or passages of the source.

Key:
Format in all cases: cell-based
[1] = tested on: TICs (Ovarian 2393A); assay: Ovarian tumor-initiating cell growth inhibition (Alamar Blue); details: 144 h, 6 days, read-out: Tumor Initiating Cell GI50 Range Ovarain 2393A
[2] = tested on: colon cancer cells (HCT116); assay: Cancer cell line growth inhibition (SRB assay); details: Homo sapiens, HCT-116, read-out: Cancer Cell Line GI50 Range HCT116
[3] = tested on: TICs (Colon 12); assay: Colon tumor-initiating cell growth inhibition (Alamar Blue); details: 216 h, 9 days, read-out: Tumor Initiating Cell GI50 Range Colon 12
[4] = tested on: ovarian cancer cells (PA-1); assay: Cancer cell line growth inhibition (SRB assay); details: read-out: Cancer Cell Line GI50 Range PA-1
[5] = HCT116 colon cancer cells, SRB assay
[6] = PA-1 ovarian cancer cells, SRB assay

| GI50 ([1]; ovarian TICs, Alamar Blue) [nM] | GI50 [2, 5] [nM] | GI50 ([3]; colon TICs, Alamar Blue) [nM] | GI50 [4, 6] [nM] | GI50 ([1]; Ovarian 2393A TICs) [nM] | GI50 [2] [nM] | GI50 ([3]; Colon 12 TICs) [nM] | GI50 ([4]; Homo sapiens, PA-1) [nM] | Compound |
| --- | --- | --- | --- | --- | --- | --- | --- | --- |
| 100 to 500 | 100 to 500 | > 500 | 100 to 500 |  |  |  |  | COC[C@@H](NC(=O)c1ccc2[nH]nc(-c3ccc(OC4CCN(C)CC4)cc3)c2c1)c1ccccc1 [Example A173, (S)-N-(2-methoxy-1-phenylethyl)-3-(4-((1-methylpiperidin-4-yl)oxy)phenyl)-5-carboxamide] |
| < 100 | < 100 | 100 to 500 | < 100 |  |  |  |  | O=C(Nc1ccc2[nH]nc(-c3ccc(N4CCC(O)CC4)cc3)c2c1)C(c1ccsc1)N1CCC1 (stereo not shown) [Example A200, 2-(azetidin-1-yl)-N-(3-(4-(4-hydroxypiperidin-1-yl)phenyl)-1H-indazol-5-yl)-2-(thiophen-3-yl)acetamide] |
| 100 to 500 | 100 to 500 | 100 to 500 | 100 to 500 |  |  |  |  | O=C(Nc1ccc2[nH]nc(-c3ccc(OC4CCN(C5COC5)CC4)cc3)c2c1)C(c1ccccc1)C1CC1 (stereo not shown) [Example A185, 2-cyclopropyl-N-(3-(4-((1-(oxetan-3-yl)piperidin-4-yl)oxy)phenyl)-1H-indazol-5-yl)-2-phenylacetamide] |
| < 100 | < 100 | 100 to 500 | < 100 |  |  |  |  | CN1CCC(Oc2ccc(-c3n[nH]c4ccc(C(=O)NC(c5cccs5)C5CC5)cc34)cc2)CC1 (stereo not shown) [Example A147, N-(cyclopropyl(thiophen-2-yl)methyl)-3-(4-((1-methylpiperidin-4-yl)oxy)phenyl)-1H-indazole-5-carboxamide] |
|  |  |  |  | < 100 | < 100 | < 100 | < 100 | O=C(N[C@H](c1ncccc1Cl)C1CC1)c1ccc2[nH]nc(-c3ccc(OC4CCN(C5COC5)CC4)cc3)c2c1 [Example A216, (S)-N-((3-chloropyridin-2-yl)(cyclopropyl)methyl)-3-(4-((1-(oxetan-3-yl)piperidin-4-yl)oxy)phenyl)-1H-indazole-5-carboxamide] |
|  |  |  |  | < 100 | < 100 | > 500 | < 100 | CN1CCC(Oc2ccc(-c3n[nH]c4ccc(C(=O)N[C@H](c5ccccn5)C5CC5)cc34)cc2)CC1 [Example A214, (S)-N-(cyclopropyl(pyridin-2-yl)methyl)-3-(4-((1-methylpiperidin-4-yl)oxy)phenyl)-1H-indazole-5-carboxamide] |
|  |  |  |  | 100 to 500 | < 100 | < 100 | < 100 | O=C(N[C@@H](c1ncccc1Cl)C1CC1)c1ccc2[nH]nc(-c3ccc(OC4CCN(C5COC5)CC4)cc3)c2c1 [Example A215, (R)-N-((3-chloropyridin-2-yl)(cyclopropyl)methyl)-3-(4-((1-(oxetan-3-yl)piperidin-4-yl)oxy)phenyl)-1H-indazole-5-carboxamide] |
| 100 to 500 | < 100 | 100 to 500 | 100 to 500 |  |  |  |  | COc1ccccc1C(NC(=O)c1ccc2[nH]nc(-c3ccc(OC4CCN(C)CC4)cc3)c2c1)C1CC1 (stereo not shown) [Example A151, N-(cyclopropyl(2-methoxyphenyl)methyl)-3-(4-((1-methylpiperidin-4-yl)oxy)phenyl)-1H-indazole-5-carboxamide] |
| < 100 | < 100 | < 100 | < 100 |  |  |  |  | O=C(Nc1ccc2[nH]nc(-c3ccc(N4CCOCC4)cc3)c2c1)C(c1ccsc1)N1CCC1 (stereo not shown) [Example A172, 2-(azetidin-1-yl)-N-(3-(4-morpholinophenyl)-1H-indazol-5-yl)-2-(thiophen-3-yl)acetamide] |
| 100 to 500 | < 100 | 100 to 500 | 100 to 500 |  |  |  |  | CC(C)(O)C1CCN(c2ccc(-c3n[nH]c4ccc(C(=O)NC(c5ccccn5)C5CC5)cc34)cc2)CC1 (stereo not shown) [Example A180, N-(cyclopropyl(pyridin-2-yl)methyl)-3-(4-(4-(2-hydroxypropan-2-yl)piperidin-1-yl)phenyl)-1H-indazole-5-carboxamide] |
| 100 to 500 | < 100 | 100 to 500 | 100 to 500 |  |  |  |  | CN1CCC(Oc2ccc(-c3n[nH]c4ccc(C(=O)NC(c5ccccc5)C5CCOCC5)cc34)cc2)CC1 (stereo not shown) [Example A177, 3-(4-((1-methylpiperidin-4-yl)oxy)phenyl)-N-(phenyl(tetrahydro-2H-pyran-4-yl)methyl)-1H-indazole-5-carboxamide] |
| 100 to 500 | < 100 | 100 to 500 | < 100 |  |  |  |  | CC1(O)CCN(c2ccc(-c3n[nH]c4ccc(NC(=O)C(c5ccsc5)N5CCCC5)cc34)cc2)CC1 (stereo not shown) [Example A89, N-(3-(4-(4-hydroxy-4-methylpiperidin-1-yl)phenyl)-1H-indazol-5-yl)-2-(pyrrolidin-1-yl)-2-(thiophen-3-yl)acetamide] |
| < 100 | < 100 | < 100 | < 100 |  |  |  |  | O=CN1CCC(Oc2ccc(-c3n[nH]c4ccc(C(=O)NC(c5ccccc5F)C5CC5)cc34)cc2)CC1 (stereo not shown) [Example A182] |
| > 500 | < 100 | > 500 | < 100 |  |  |  |  | O=C(Nc1ccc2[nH]nc(-c3ccc(OC4CN(C5COC5)C4)cc3)c2c1)C(c1ccsc1)N1CCCC1 (stereo not shown) [Example A189, N-(3-(4-((1-(oxetan-3-yl)azetidin-3-yl)oxy)phenyl)-1H-indazol-5-yl)-2-(pyrrolidin-1-yl)-2-(thiophen-3-yl)acetamide] |
| < 100 | < 100 | < 100 | < 100 |  |  |  |  | O=CN1CCC(Oc2ccc(-c3n[nH]c4ccc(C(=O)N[C@H](c5ccccn5)C5CC5)cc34)cc2)CC1 [Example A204, (S)-N-(cyclopropyl(pyridin-2-yl)methyl)-3-(4-((1-formylpiperidin-4-yl)oxy)phenyl)-1H-indazole-5-carboxamide] |
| > 500 | 100 to 500 | > 500 | 100 to 500 |  |  |  |  | CN1CCC(Oc2ccc(-c3n[nH]c4ccc(NC(=O)C(OC5CCCC5)c5ccccc5)cc34)cc2)CC1 (stereo not shown) [Example A183, 2-(cyclopentyloxy)-N-(3-(4-((1-methylpiperidin-4-yl)oxy)phenyl)-1H-indazol-5-yl)-2-phenylacetamide] |
| < 100 | < 100 | < 100 | < 100 |  |  |  |  | CC(C)(O)C1CCN(c2ccc(-c3n[nH]c4ccc(NC(=O)C(c5ccsc5)N5CCC5)cc34)cc2)CC1 (stereo not shown) [Example A201, 2-(azetidin-1-yl)-N-(3-(4-(4-(2-hydroxypropan-2-yl)piperidin-1-yl)phenyl)-1H-indazol-5-yl)-2-(thiophen-3-yl)acetamide] |
| < 100 | < 100 | 100 to 500 | < 100 |  |  |  |  | CN1CCC(Oc2ccc(-c3n[nH]c4ccc(NC(=O)C(c5cccs5)N5CCCC5)cc34)cc2)CC1 (stereo not shown) [Example A91, N-(3-(4-((1-methylpiperidin-4-yl)oxy)phenyl)-1H-indazol-5-yl)-2-(pyrrolidin-1-yl)-2-(thiophen-2-yl)acetamide] |
| > 500 | > 500 | > 500 | > 500 |  |  |  |  | CN1CCC(Oc2ccc(-c3n[nH]c4ccc(C(=O)NC(c5ccccc5)C5CCCCC5)cc34)cc2)CC1 (stereo not shown) [Example A170, N-(cyclohexyl(phenyl)methyl)-3-(4-((1-methylpiperidin-4-yl)oxy)phenyl)-1H-indazole-5-carboxamide] |
| 100 to 500 | < 100 | < 100 | < 100 |  |  |  |  | Cc1ccccc1C(NC(=O)c1ccc2[nH]nc(-c3ccc(OC4CCN(C)CC4)cc3)c2c1)C1CC1 (stereo not shown) [Example A132, N-(cyclopropyl(o-tolyl)methyl)-3-(4-((1-methylpiperidin-4-yl)oxy)phenyl)-1H-indazole-5-carboxamide] |
| < 100 | < 100 | < 100 | < 100 |  |  |  |  | O=C(N[C@H](c1ccccn1)C1CC1)c1ccc2[nH]nc(-c3ccc(OC4CCN(C5COC5)CC4)cc3)c2c1 [Example A197, (S)-N-(cyclopropyl(pyridin-2-yl)methyl)-3-(4-((1-(oxetan-3-yl)piperidin-4-yl)oxy)phenyl)-1H-indazole-5-carboxamide] |
| 100 to 500 | < 100 | 100 to 500 | 100 to 500 |  |  |  |  | CC[C@@H](NC(=O)c1ccc2[nH]nc(-c3ccc(OC4CCN(C)CC4)cc3)c2c1)c1cccc(OC)c1 [Example A174, (R)-N-(1-(3-methoxyphenyl)propyl)-3-(4-((1-methylpiperidin-4-yl)oxy)phenyl)-1H-indazole-5-carboxamide] |
| 100 to 500 | 100 to 500 | 100 to 500 | 100 to 500 |  |  |  |  | O=C(NC(c1ccccc1)C1CC1)c1ccc2[nH]nc(-c3ccc(OC4CN(C5COC5)C4)cc3)c2c1 (stereo not shown) [Example A190, N-(cyclopropyl(phenyl)methyl)-3-(4-((1-(oxetan-3-yl)azetidin-3-yl)oxy)phenyl)-1H-indazole-5-carboxamide] |
| < 100 | < 100 | 100 to 500 | < 100 |  |  |  |  | O=C(NC(c1ccccn1)C1CC1)c1ccc2[nH]nc(-c3ccc(OC4CCN(C5COC5)CC4)cc3)c2c1 (stereo not shown) [Example A171, N-(cyclopropyl(pyridin-2-yl)methyl)-3-(4-((1-(oxetan-3-yl)piperidin-4-yl)oxy)phenyl)-1H-indazole-5-carboxamide] |

| Compound | GI50 ([1]; ovarian TICs, Alamar Blue) [nM] | GI50 [2, 5] [nM] | GI50 ([3]; colon TICs, Alamar Blue) [nM] | GI50 [4, 6] [nM] | GI50 ([1]; Ovarian 2393A TICs) [nM] | GI50 [2] [nM] | GI50 ([3]; Colon 12 TICs) [nM] | GI50 ([4]; Homo sapiens, PA-1) [nM] |
| --- | --- | --- | --- | --- | --- | --- | --- | --- |
| CN1[C@@H]2CC[C@H]1C[C@@H](Oc1ccc(-c3n[nH]c4ccc(C(=O)NC(c5ccccc5)C5CC5)cc34)cc1)C2 (stereo partly shown) [Example A178] | 100 to 500 | < 100 | 100 to 500 | < 100 |  |  |  |  |
